Assay results taken from ChEMBL document CHEMBL1125524, “Adenosine A1 antagonists. 2. Structure-activity relationships on diuretic activities and protective effects against acute renal failure” (J Med Chem, 1992).

Columns and labels:
Rattus norvegicus [1] = test: Urea nitrogen concentration measured after intraperitoneal administration of 10 mg/kg of compound to rats(vehicle 164.3+/-4.9); format: functional
Rattus norvegicus [2] = test: Effect on urinary excretion potassium and sodium after oral administration of 25 mg/kg to rats(potassium and sodium excretion in control rat is 0.160+/-0.006); format: functional, Urine
Rattus norvegicus [3] = test: Ratio of sodium ion/potassium ion concentration in treated rats to that in control rats, at a peroral dose of 25 mg/Kg; format: functional
Rattus norvegicus [4] = test: Ratio of urinary excretion value (urinary volume) in treated rats to that in control rats, at a peroral dose of 25 mg/Kg; format: functional, Urine
Rattus norvegicus [5] = test: Percent inhibition of Urea nitrogen by the compound given as ratio of UN value in treated to vehicle treated ones after intraperitoneal administration of 10 mg/kg of compound to rats(vehicle 164.3+/-4.9); format: functional; details: ip
Rattus norvegicus [6] = test: Serum creatinine concentration measured after intraperitoneal administration of 10 mg/kg of compound to rats(vehicle 4.38+/-0.17); format: functional
Adenosine A2 receptor = Adenosine A2 receptor (Rattus norvegicus, UniProt P29276+P30543)
Rattus norvegicus [7] = test: Percent inhibition of serum creatinine by the compound given as ratio of Cr value in treated to vehicle treated ones after intraperitoneal administration of 10 mg/kg of compound to rats(vehicle 4.38+/-0.17); format: functional; details: ip
Rattus norvegicus [8] = test: Oral diuretic activity was measured after oral administration of 25 mg/kg to rats(control volume is 0.76+/-0.01); format: functional, Urine
Rattus norvegicus [9] = test: Ratio of urinary excretion value (Na+ concentration) in treated rats to that in control rats, at a peroral dose of 25 mg/Kg; format: functional, Urine
Rattus norvegicus [10] = test: Serum creatinine concentration measured after intraperitoneal administration of 1 mg/kg of compound to rats(vehicle 2.89+/-0.42); format: functional
Adenosine receptor A1 = molecular target: T1, Adenosine receptor A1 (Cavia porcellus, UniProt P47745)
T1 sequence (P47745 whole entry): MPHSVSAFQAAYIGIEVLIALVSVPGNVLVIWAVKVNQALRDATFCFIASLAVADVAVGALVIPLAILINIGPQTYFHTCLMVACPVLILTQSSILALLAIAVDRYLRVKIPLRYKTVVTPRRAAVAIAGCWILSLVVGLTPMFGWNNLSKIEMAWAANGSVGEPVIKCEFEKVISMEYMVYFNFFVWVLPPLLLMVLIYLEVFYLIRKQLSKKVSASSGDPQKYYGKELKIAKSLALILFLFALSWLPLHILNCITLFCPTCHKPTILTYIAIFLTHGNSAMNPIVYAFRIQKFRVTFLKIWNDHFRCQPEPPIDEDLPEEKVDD
Description: Binding affinity against adenosine A1 receptor in guinea pig forebrain membranes using N6-[3H]cyclohexyladenosine as radioligand

Rattus norvegicus [11] = test: Urea nitrogen concentration measured after intraperitoneal administration of 1 mg/kg of compound to rats(vehicle 107.7+/-15.2); format: functional
Rattus norvegicus [12] = test: Serum creatinine concentration measured after intraperitoneal administration of 10 mg/kg of compound to rats(vehicle 2.89+/-0.18); format: functional
Rattus norvegicus [13] = test: Effect on urinary excretion potassium and sodium after oral administration of 25 mg/kg to rats(potassium and sodium excretion in control rat is 0.134+/-0.017); format: functional, Urine
Rattus norvegicus [14] = test: Percent inhibition of Urea nitrogen by the compound given as ratio of UN value in treated to vehicle treated ones after intraperitoneal administration of 10 mg/kg of compound to rats(vehicle 138.4+/-9.8); format: functional; details: ip
Rattus norvegicus [15] = test: Ratio of urinary excretion value (Na+ concentration) in treated rats to that in control rats, at a peroral dose of 6.25 mg/Kg; format: functional, Urine
Rattus norvegicus [16] = test: Percent inhibition of serum creatinine by the compound given as ratio of Cr value in treated to vehicle treated ones after intraperitoneal administration of 1 mg/kg of compound to rats(vehicle 2.89+/-0.42); format: functional; details: ip
Rattus norvegicus [17] = test: Urea nitrogen concentration measured after intraperitoneal administration of 10 mg/kg of compound to rats(vehicle 138.4+/-9.8); format: functional
Rattus norvegicus [18] = test: Percent inhibition of Urea nitrogen by the compound given as ratio of UN value in treated to vehicle treated ones after intraperitoneal administration of 1 mg/kg of compound to rats(vehicle 107.7+/-15.2); format: functional; details: ip
Rattus norvegicus [19] = test: Percent inhibition of serum creatinine by the compound given as ratio of Cr value in treated to vehicle treated ones after intraperitoneal administration of 10 mg/kg of compound to rats(vehicle 2.89+/-0.18); format: functional; details: ip
Rattus norvegicus [20] = test: Ratio of urinary excretion value (urinary volume) in treated rats to that in control rats, at a peroral dose of 6.25 mg/Kg; format: functional, Urine
Rattus norvegicus [21] = test: Oral diuretic activity was measured after oral administration of 25 mg/kg to rats(control volume is 0.87+/-0.04); format: functional, Urine

## CCCn1c(=O)c2c(nc(C(C3CC3)C3CC3)n2CCC)n(CCC)c1=O
Rattus norvegicus [1]
  UN: 159.2 mg/dL
Rattus norvegicus [2]
  Na: 0.188 m equiv 6hr-1 100g-1
Rattus norvegicus [3]
  Na+/K+: 0.92
Rattus norvegicus [4]
  T/C: 1.47
Rattus norvegicus [5]
  inhibition in vivo at 10 mg/kg: 3%
Rattus norvegicus [6]
  Cr: 4.09 mg/dL
Adenosine A2 receptor
  Ki: 6300 nM
Rattus norvegicus [7]
  inhibition in vivo at 10 mg/kg: 7%
Rattus norvegicus [8]
  Urine volume: 1.12 ml 6hr-1 100g-1
Rattus norvegicus [9]
  T/C: 1.18

## FC(F)(F)c1nnc2c(NC3CCCC3)nc3ccccc3n12
Rattus norvegicus [10]
  Cr: 2.6 mg/dL
Adenosine receptor A1
  Ki: 76 nM
Rattus norvegicus [3]
  Na+/K+: 1.71
Rattus norvegicus [4]
  T/C: 2.13
Rattus norvegicus [11]
  UN: 92 mg/dL
Adenosine A2 receptor
  Ki: 1300 nM
Rattus norvegicus [12]
  Cr: 1.52 mg/dL
Rattus norvegicus [13]
  Na: 0.314 m equiv 6hr-1 100g-1
Rattus norvegicus [14]
  inhibition in vivo at 10 mg/kg: 62%
Rattus norvegicus [15]
  T/C: 1.1
Rattus norvegicus [16]
  inhibition in vivo at 1 mg/kg: 10%
Rattus norvegicus [17]
  UN: 58.9 mg/dL
Rattus norvegicus [18]
  inhibition in vivo at 1 mg/kg: 15%
Rattus norvegicus [19]
  inhibition in vivo at 10 mg/kg: 48%
Rattus norvegicus [20]
  T/C: 0.92
Rattus norvegicus [9]
  T/C: 1.55
Rattus norvegicus [21]
  Urine volume: 1.86 ml 6hr-1 100g-1
